# According to ChEMBL document CHEMBL3352214, “Studies on indolizines. Evaluation of their biological properties as microtubule-interacting agents and as melanoma targeting compounds” (Eur J Med Chem, 2015):
# Columns and labels:
# [1] = Inhibition of sheep brain tubulin polymerization by fluorescence assay; set-up: species or system Ovis aries
# Ovis aries = organism: Ovis aries; assay: Inhibition of sheep brain tubulin polymerization at 100 uM by fluorescence assay
# [2] = Growth inhibition of human HOP92 cells at 10^-5 M after 48 hrs by SRB assay; format: functional; settings: HOP-92, 48 h, read-out: GI
# [3] = Growth inhibition of human HCT116 cells at 10^-5 M after 48 hrs by SRB assay; format: functional; settings: HCT-116, 48 h, read-out: GI
# MDA-MB-435 [4] = assay: Growth inhibition of human MDA-MB-435 cells at 10^-5 M after 48 hrs by SRB assay; format: functional; settings: MDA-MB-435, 48 h, read-out: GI
# [5] = Growth inhibition of human EKVX cells at 10^-5 M after 48 hrs by SRB assay; format: functional; settings: read-out: GI
# CAKI-1 = assay: Growth inhibition of human Caki1 cells at 10^-5 M after 48 hrs by SRB assay; format: functional; settings: CAKI-1, 48 h, read-out: GI
# SNB-75 [6] = assay: Growth inhibition of human SNB75 cells at 10^-5 M after 48 hrs by SRB assay; format: functional; settings: SNB-75, 48 h, read-out: GI
# [7] = Growth inhibition of human SF295 cells at 10^-5 M after 48 hrs by SRB assay; format: functional; settings: SF-295, 48 h, read-out: GI
# T47D = assay: Growth inhibition of human T47D cells at 10^-5 M after 48 hrs by SRB assay; format: functional; settings: Homo sapiens, T47D, 48 h; read-out: GI
# Malme-3M = assay: Growth inhibition of human MALME-3M cells at 10^-5 M after 48 hrs by SRB assay; format: functional; settings: read-out: GI
# NCI-H522 [8] = assay: Growth inhibition of human NCI-H522 cells at 10^-5 M after 48 hrs by SRB assay; format: functional; settings: NCI-H522, 48 h, read-out: GI
# [9] = Growth inhibition of human PC3 cells at 10^-5 M after 48 hrs by SRB assay; format: functional; settings: PC-3, 48 h, read-out: GI
# [10] = Growth inhibition of human HCT15 cells at 10^-5 M after 48 hrs by SRB assay; format: functional; settings: HCT-15, 48 h, read-out: GI
# A498 [11] = assay: Growth inhibition of human A498 cells at 10^-5 M after 48 hrs by SRB assay; format: functional; settings: A498, 48 h, read-out: GI
# [12] = Growth inhibition of human MOLT4 cells at 10^-5 M after 48 hrs by SRB assay; format: functional; settings: MOLT-4, 48 h, read-out: GI
# MCF7 [13] = assay: Growth inhibition of human MCF7 cells at 10^-5 M after 48 hrs by SRB assay; format: functional; settings: MCF7, 48 h, read-out: GI
# HL-60(TB) [14] = assay: Growth inhibition of human HL-60(TB) cells at 10^-5 M after 48 hrs by SRB assay; format: functional; settings: HL-60, 48 h, read-out: GI
# [15] = Growth inhibition of human PC3 cells after 48 hrs by SRB assay; format: functional; settings: PC-3, 48 h
# [16] = Growth inhibition of human COLO205 cells after 48 hrs by SRB assay; format: functional; settings: COLO 205, 48 h
# SR = assay: Growth inhibition of human SR cells after 48 hrs by SRB assay; format: functional
# K562 = assay: Growth inhibition of human K562 cells after 48 hrs by SRB assay; format: functional; settings: K562, 48 h
# MDA-MB-435 [17] = assay: Cytotoxicity against human MDA-MB-435 cells assessed as cell growth at 10^-5 M after 48 hrs by SRB assay; format: functional; settings: MDA-MB-435, 48 h, read-out: Activity
# A498 [18] = assay: Growth inhibition of human A498 cells after 48 hrs by SRB assay; format: functional; settings: A498, 48 h
# SK-MEL-5 = assay: Growth inhibition of human SK-MEL-5 cells after 48 hrs by SRB assay; format: functional; settings: SK-MEL-5, 48 h
# HT-29 = assay: Growth inhibition of human HT-29 cells after 48 hrs by SRB assay; format: functional; settings: HT-29, 48 h
# NCI-H522 [19] = assay: Growth inhibition of human NCI-H522 cells after 48 hrs by SRB assay; format: functional; settings: NCI-H522, 48 h
# KM12 = assay: Growth inhibition of human KM12 cells after 48 hrs by SRB assay; format: functional; settings: KM12, 48 h
# [20] = Growth inhibition of human OVCAR3 cells after 48 hrs by SRB assay; format: functional; settings: OVCAR-3, 48 h
# HL-60(TB) [21] = assay: Cytotoxicity against human HL-60(TB) cells assessed as cell growth at 10^-5 M after 48 hrs by SRB assay; format: functional; settings: HL-60, 48 h, read-out: Activity
# SNB-75 [22] = assay: Growth inhibition of human SNB75 cells after 48 hrs by SRB assay; format: functional; settings: SNB-75, 48 h
# NCI-H522 [23] = assay: Cytotoxicity against human NCI-H522 cells assessed as cell growth at 10^-5 M after 48 hrs by SRB assay; format: functional; settings: NCI-H522, 48 h, read-out: Activity
# SF-295 = assay: Cytotoxicity against human SF295 cells assessed as cell growth at 10^-5 M after 48 hrs by SRB assay; format: functional; settings: SF-295, 48 h, read-out: Activity
# MDA-MB-468 = assay: Growth inhibition of human MDA-MB-468 cells after 48 hrs by SRB assay; format: functional; settings: MDA-MB-468, 48 h
# MDA-MB-435 [24] = assay: Growth inhibition of human MDA-MB-435 cells after 48 hrs by SRB assay; format: functional; settings: MDA-MB-435, 48 h
# HL-60(TB) [25] = assay: Growth inhibition of human HL-60(TB) cells after 48 hrs by SRB assay; format: functional; settings: HL-60, 48 h
# A498 [26] = assay: Cytotoxicity against human A498 cells assessed as cell growth at 10^-5 M after 48 hrs by SRB assay; format: functional; settings: A498, 48 h, read-out: Activity
# NCI/ADR-RES = assay: Growth inhibition of human NCI/ADR-RES cells after 48 hrs by SRB assay; format: functional
# MCF7 [27] = assay: Growth inhibition of human MCF7 cells after 48 hrs by SRB assay; format: functional; settings: MCF7, 48 h
smiles,measurement,setting,value
CCOC(=O)c1cc(C(=O)c2cc(OC)c(OC)c(OC)c2)n2cccc(C)c12,IC50,[1],98.2 µM
same,inhibition,Ovis aries,55%
COC(=O)c1c(C(=O)OC)c2cc(N(C)C)ccn2c1C(=O)c1cc(OC)c(OC)c(OC)c1,inhibition of growth at 10 µM,[2],11%
same,inhibition of growth at 10 µM,[3],0%
same,inhibition of growth at 10 µM,MDA-MB-435 [4],4%
same,inhibition of growth at 10 µM,[5],0%
same,inhibition of growth at 10 µM,CAKI-1,19%
same,inhibition of growth at 10 µM,SNB-75 [6],9%
same,inhibition,Ovis aries,15%
same,inhibition of growth at 10 µM,[7],11%
same,inhibition of growth at 10 µM,T47D,5%
same,inhibition of growth at 10 µM,Malme-3M,0%
same,inhibition of growth at 10 µM,NCI-H522 [8],3%
same,inhibition of growth at 10 µM,[9],2%
same,inhibition of growth at 10 µM,[10],7%
same,inhibition of growth at 10 µM,A498 [11],18%
same,inhibition of growth at 10 µM,[12],0%
same,inhibition of growth at 10 µM,MCF7 [13],0%
same,inhibition of growth at 10 µM,HL-60(TB) [14],26%
CCOC(=O)c1cc(C(=O)c2cc(OC)c(OC)c(OC)c2Br)n2ccc(OC)cc12,IC50,[1],104 µM
same,inhibition of growth at 10 µM,[2],39%
same,inhibition of growth at 10 µM,[3],31%
same,inhibition of growth at 10 µM,MDA-MB-435 [4],10%
same,inhibition of growth at 10 µM,[5],52%
same,inhibition of growth at 10 µM,CAKI-1,51%
same,inhibition of growth at 10 µM,SNB-75 [6],0%
same,inhibition,Ovis aries,54%
same,inhibition of growth at 10 µM,[7],38%
same,inhibition of growth at 10 µM,T47D,36%
same,inhibition of growth at 10 µM,Malme-3M,0%
same,inhibition of growth at 10 µM,NCI-H522 [8],35%
same,inhibition of growth at 10 µM,[9],60%
same,inhibition of growth at 10 µM,[10],39%
same,inhibition of growth at 10 µM,A498 [11],23%
same,inhibition of growth at 10 µM,[12],60%
same,inhibition of growth at 10 µM,MCF7 [13],7%
same,inhibition of growth at 10 µM,HL-60(TB) [14],57%
CCOC(=O)c1cc(C(=O)c2cc(OC)c(OC)c(OC)c2)n2cc(C)ccc12,IC50,[1],33.5 µM
same,inhibition,Ovis aries,73%
COC(=O)c1c(C(=O)OC)c2cc(C)ccn2c1C(=O)c1cc(OC)c(OC)c(OC)c1,inhibition of growth at 10 µM,[2],5%
same,inhibition of growth at 10 µM,[3],0%
same,inhibition of growth at 10 µM,MDA-MB-435 [4],0%
same,inhibition of growth at 10 µM,[5],0%
same,inhibition of growth at 10 µM,CAKI-1,3%
same,inhibition of growth at 10 µM,SNB-75 [6],7%
same,inhibition,Ovis aries,2%
same,inhibition of growth at 10 µM,[7],0%
same,inhibition of growth at 10 µM,T47D,3%
same,inhibition of growth at 10 µM,Malme-3M,8%
same,inhibition of growth at 10 µM,NCI-H522 [8],5%
same,inhibition of growth at 10 µM,[9],1%
same,inhibition of growth at 10 µM,[10],3%
same,inhibition of growth at 10 µM,A498 [11],3%
same,inhibition of growth at 10 µM,[12],4%
same,inhibition of growth at 10 µM,MCF7 [13],0%
same,inhibition of growth at 10 µM,HL-60(TB) [14],7%
CCOC(=O)c1cc(C(=O)c2cc(OC)c(OC)c(OC)c2)n2c(C)cccc12,GI50,[15],0.122 µM
same,GI50,[16],0.108 µM
same,GI50,SR,0.033 µM
same,GI50,K562,0.053 µM
same,growth at 10 µM,MDA-MB-435 [17],-48%
same,IC50,[1],8.02 µM
same,GI50,A498 [18],0.052 µM
same,GI50,SK-MEL-5,0.061 µM
same,GI50,HT-29,0.04 µM
same,GI50,NCI-H522 [19],0.066 µM
same,GI50,KM12,0.06 µM
same,inhibition of growth at 10 µM,[2],26%
same,inhibition of growth at 10 µM,[3],91%
same,inhibition of growth at 10 µM,MDA-MB-435 [4],100%
same,inhibition of growth at 10 µM,[5],57%
same,inhibition of growth at 10 µM,CAKI-1,63%
same,GI50,[20],0.04 µM
same,growth at 10 µM,HL-60(TB) [21],-42%
same,inhibition of growth at 10 µM,SNB-75 [6],88%
same,GI50,SNB-75 [22],0.121 µM
same,growth at 10 µM,NCI-H522 [23],-32%
same,inhibition,Ovis aries,83%
same,growth at 10 µM,SF-295,-32%
same,inhibition of growth at 10 µM,[7],100%
same,inhibition of growth at 10 µM,T47D,63%
same,GI50,MDA-MB-468,0.111 µM
same,inhibition of growth at 10 µM,Malme-3M,63%
same,inhibition of growth at 10 µM,NCI-H522 [8],100%
same,inhibition of growth at 10 µM,[9],77%
same,inhibition of growth at 10 µM,[10],78%
same,inhibition of growth at 10 µM,A498 [11],100%
same,GI50,MDA-MB-435 [24],0.03 µM
same,inhibition of growth at 10 µM,[12],96%
same,GI50,HL-60(TB) [25],0.034 µM
same,growth at 10 µM,A498 [26],-3%
same,GI50,NCI/ADR-RES,0.065 µM
same,inhibition of growth at 10 µM,MCF7 [13],86%
same,inhibition of growth at 10 µM,HL-60(TB) [14],100%
same,GI50,MCF7 [27],0.056 µM
COc1cc([C@@H]2c3cc4c(cc3C[C@H]3COC(=O)[C@@H]32)OCO4)cc(OC)c1OC [DESOXYPODOPHYLLOTOXIN],IC50,[1],1.76 µM
same,inhibition,Ovis aries,100%
